# Structures can show the parent of a compound that is named as a salt.
# Target: interaction between p53 and MDM2 proteins (recombinant GST-tagged MDM2) (Homo sapiens, UniProt Q00987)
# Test: HTRF assay of inhibition of the p53-MDM2 interaction (GST-MDM2 / biotinylated p53 peptide);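 also: FRET read-out from Eu-labelled anti-GST antibody to streptavidin-APC, with 90 nM N-terminally biotinylated p53 peptide and 160 ng/ml GST-MDM2 in Tris-borate saline containing 1 mM DTT, 384-well format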
# Format: binding
# Details: HTRF, 0.02% BSA, 37° C. 1 h
# Method: The ability of the compounds to inhibit the interaction between p53 and MDM2 proteins was measured by an HTRF (homogeneous time-resolved fluorescence) assay in which recombinant GST-tagged MDM2 binds to a peptide that resembles the MDM2-interacting region of p53 (Lane et al.). Binding of GST-MDM2 protein and p53-peptide (biotinylated on its N-terminal end) is registered by the FRET (fluorescence resonance energy transfer) between Europium (Eu)-labeled anti-GST antibody and streptavidin-conjugated Allophycocyanin (APC).
# Test is performed in black flat-bottom 384-well plates (Costar) in a total volume of 40 uL containing: 90 nM biotinylate peptide, 160 ng/ml GST-MDM2, 20 nM streptavidin-APC (PerkinElmerWallac), 2 nM Eu-labeled anti-GST-antibody (PerkinElmerWallac), 0.02% bovine serum albumin (BSA), 1 mM dithiothreitol (DTT) and 20 mM Tris-borate saline (TBS) buffer as follows: Add 10 uL of GST-MDM2 (640 ng/ml working solution) in reaction buffer to each well. […] Incubate at 37° C. for 1 h.
# interaction between p53 and MDM2 proteins (recombinant GST-tagged MDM2), sequence (Q00987 whole entry): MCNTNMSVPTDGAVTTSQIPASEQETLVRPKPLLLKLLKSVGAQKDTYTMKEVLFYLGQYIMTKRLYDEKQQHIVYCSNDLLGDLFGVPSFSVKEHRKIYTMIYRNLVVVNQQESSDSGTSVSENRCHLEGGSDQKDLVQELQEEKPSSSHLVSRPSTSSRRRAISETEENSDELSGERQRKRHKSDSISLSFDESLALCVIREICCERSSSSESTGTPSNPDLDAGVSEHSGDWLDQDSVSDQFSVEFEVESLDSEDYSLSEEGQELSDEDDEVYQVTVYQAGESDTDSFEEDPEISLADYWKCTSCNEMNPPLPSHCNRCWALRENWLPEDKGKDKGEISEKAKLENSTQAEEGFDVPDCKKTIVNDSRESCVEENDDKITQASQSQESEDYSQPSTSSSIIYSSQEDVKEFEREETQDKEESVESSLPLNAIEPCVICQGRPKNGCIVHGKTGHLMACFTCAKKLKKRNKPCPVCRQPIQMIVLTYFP
row,Compound,IC50
1,"COc1cc(C(=O)NC(C)CO)ccc1NC(=O)[C@@H]1N[C@@H](CC(C)(C)C)[C@](C#N)(c2ccc(Cl)cc2F)[C@H]1c1cccc(Cl)c1F (mixture of isomers) [Example 14, Rac-(2R,3S,4R,5S)-4-(4-Chloro-2-fluoro-phenyl)-3-(3-chloro-2-fluoro-phenyl)-4-cyano-5-(2,2-dimethyl-propyl)-pyrrolidine-2-carboxylic acid [4-(2-hydroxy-1-methyl-ethylcarbamoyl)-2-methoxy-phenyl]-amide]",0.00675 µM
2,"COc1cc(C(=O)OCCO)ccc1NC(=O)[C@@H]1N[C@@H](CC(C)(C)C)[C@](C#N)(c2ccc(Cl)cc2F)[C@H]1c1cccc(Cl)c1F [Example 1, 2-Hydroxyethyl 4-((2R,3S,4R,5S)-3-(3-chloro-2-fluorophenyl)-4-(4-chloro-2-fluorophenyl)-4-cyano-5-neopentylpyrrolidine-2-carboxamido)-3-methoxybenzoate]",0.0111 µM
3,"COc1cc(C(=O)OCCOC(=O)[C@H](C)N)ccc1NC(=O)[C@@H]1N[C@@H](CC(C)(C)C)[C@](C#N)(c2ccc(Cl)cc2F)[C@H]1c1cccc(Cl)c1F [Example 4, 4-{[(2R,3S,4R,5S)-3-(3-Chloro-2-fluoro-phenyl)-4-(4-chloro-2-fluoro-phenyl)-4-cyano-5-(2,2-dimethyl-propyl)-pyrrolidine-2-carbonyl]-amino}-3-methoxy-benzoic acid 2-((S)-2-amino-propionyloxy)-ethyl ester]",0.00984 µM
4,"COc1cc(C(=O)OCCOC(=O)[C@@H](C)N)ccc1NC(=O)[C@@H]1N[C@@H](CC(C)(C)C)[C@](C#N)(c2ccc(Cl)cc2F)[C@H]1c1cccc(Cl)c1F [Example 6, 4-{[(2R,3S,4R,5S)-3-(3-Chloro-2-fluoro-phenyl)-4-(4-chloro-2-fluoro-phenyl)-4-cyano-5-(2,2-dimethyl-propyl)-pyrrolidine-2-carbonyl]-amino}-3-methoxy-benzoic acid 2-((R)-2-amino-propionyloxy)-ethyl ester]",0.0371 µM
5,"COc1cc(C(=O)OCCN(C)C)ccc1NC(=O)[C@@H]1N[C@@H](CC(C)(C)C)[C@](C#N)(c2ccc(Cl)cc2F)[C@H]1c1cccc(Cl)c1F [Example 7, 2-(Dimethylamino)ethyl 4-((2R,3S,4R,5S)-3-(3-chloro-2-fluorophenyl)-4-(4-chloro-2-fluorophenyl)-4-cyano-5-neopentylpyrrolidine-2-carboxamido)-3-methoxybenzoate]",0.0146 µM
6,"COc1cc(C(=O)OCC2COC(C)(C)O2)ccc1NC(=O)[C@@H]1N[C@@H](CC(C)(C)C)[C@](C#N)(c2ccc(Cl)cc2F)[C@H]1c1cccc(Cl)c1F (stereo partly drawn) [Example 8, (2,2-Dimethyl-1,3-dioxolan-4-yl)methyl 4-((2R,3S,4R,5S)-3-(3-chloro-2-fluorophenyl)-4-(4-chloro-2-fluorophenyl)-4-cyano-5-neopentylpyrrolidine-2-carboxamido)-3-methoxybenzoate]",0.00957 µM
7,"COc1cc(C(=O)OCC(CO)CO)ccc1NC(=O)[C@@H]1N[C@@H](CC(C)(C)C)[C@](C#N)(c2ccc(Cl)cc2F)[C@H]1c1cccc(Cl)c1F [Example 9, 3-Hydroxy-2-(hydroxymethyl)propyl 4-((2R,3S,4R,5S)-3-(3-chloro-2-fluorophenyl)-4-(4-chloro-2-fluorophenyl)-4-cyano-5-neopentylpyrrolidine-2-carboxamido)-3-methoxybenzoate]",0.012 µM
8,"COCCOC(=O)c1ccc(NC(=O)[C@@H]2N[C@@H](CC(C)(C)C)[C@](C#N)(c3ccc(Cl)cc3F)[C@H]2c2cccc(Cl)c2F)c(OC)c1 [Example 10, 2-Methoxyethyl 4-((2R,3S,4R,5S)-3-(3-chloro-2-fluorophenyl)-4-(4-chloro-2-fluorophenyl)-4-cyano-5-neopentylpyrrolidine-2-carboxamido)-3-methoxybenzoate]",0.0107 µM
9,"COc1cc(C(=O)OCCI)ccc1NC(=O)[C@@H]1N[C@@H](CC(C)(C)C)[C@](C#N)(c2ccc(Cl)cc2F)[C@H]1c1cccc(Cl)c1F [Example 11, 2-Iodoethyl 4-((2R,3S,4R,5S)-3-(3-chloro-2-fluorophenyl)-4-(4-chloro-2-fluorophenyl)-4-cyano-5-neopentylpyrrolidine-2-carboxamido)-3-methoxybenzoate]",0.0117 µM
10,"COc1cc(C(=O)OCCOP(=O)(OC(C)(C)C)OC(C)(C)C)ccc1NC(=O)[C@@H]1N[C@@H](CC(C)(C)C)[C@](C#N)(c2ccc(Cl)cc2F)[C@H]1c1cccc(Cl)c1F [Example 12, 2-(Di-tert-butoxyphosphoryloxy)ethyl 4-((2R,3S,4R,5S)-3-(3-chloro-2-fluorophenyl)-4-(4-chloro-2-fluorophenyl)-4-cyano-5-neopentylpyrrolidine-2-carboxamido)-3-methoxybenzoate]",0.00959 µM
11,"COc1cc(C(=O)OCCOP(=O)(O)O)ccc1NC(=O)[C@@H]1N[C@@H](CC(C)(C)C)[C@](C#N)(c2ccc(Cl)cc2F)[C@H]1c1cccc(Cl)c1F [Example 13, 2-(Phosphonooxy)ethyl 4-((2R,3S,4R,5S)-3-(3-chloro-2-fluorophenyl)-4-(4-chloro-2-fluorophenyl)-4-cyano-5-neopentylpyrrolidine-2-carboxamido)-3-methoxybenzoate, trifluoroacetate salt]",0.00454 µM

# Further lines, results first:
row,IC50,Compound
1,0.0501 µM,"CCN(CC)CCOC(=O)c1ccc(NC(=O)[C@@H]2N[C@@H](CC(C)(C)C)[C@](C#N)(c3ccc(Cl)cc3F)[C@H]2c2cccc(Cl)c2F)c(OC)c1 [Example 16, 4-{[(2R,3S,4R,5S)-4-(4-Chloro-2-fluoro-phenyl)-3-(3-chloro-2-fluoro-phenyl)-4-cyano-5-(2,2-dimethyl-propyl)-pyrrolidine-2-carbonyl]-amino}-3-methoxy-benzoic acid 2-diethylamino-ethyl ester]"
2,0.0115 µM,"COc1cc(C(=O)OC2CCN(C)CC2)ccc1NC(=O)[C@@H]1N[C@@H](CC(C)(C)C)[C@](C#N)(c2ccc(Cl)cc2F)[C@H]1c1cccc(Cl)c1F [Example 17, 4-{[(2R,3S,4R,5S)-4-(4-Chloro-2-fluoro-phenyl)-3-(3-chloro-2-fluoro-phenyl)-4-cyano-5-(2,2-dimethyl-propyl)-pyrrolidine-2-carbonyl]-amino}-3-methoxy-benzoic acid 1-methyl-piperidin-4-yl ester]"
3,0.024 µM,"COc1cc(C(=O)OCC2CCN(C)CC2)ccc1NC(=O)[C@@H]1N[C@@H](CC(C)(C)C)[C@](C#N)(c2ccc(Cl)cc2F)[C@H]1c1cccc(Cl)c1F [Example 18, 4-{[(2R,3S,4R,5S)-4-(4-Chloro-2-fluoro-phenyl)-3-(3-chloro-2-fluoro-phenyl)-4-cyano-5-(2,2-dimethyl-propyl)-pyrrolidine-2-carbonyl]-amino}-3-methoxy-benzoic acid 1-methyl-piperidin-4-ylmethyl ester]"
4,0.00558 µM,"COc1cc(C(=O)OCCN2CCN(C)CC2)ccc1NC(=O)[C@@H]1N[C@@H](CC(C)(C)C)[C@](C#N)(c2ccc(Cl)cc2F)[C@H]1c1cccc(Cl)c1F [Example 19, 4-{[(2R,3S,4R,5S)-4-(4-Chloro-2-fluoro-phenyl)-3-(3-chloro-2-fluoro-phenyl)-4-cyano-5-(2,2-dimethyl-propyl)-pyrrolidine-2-carbonyl]-amino}-3-methoxy-benzoic acid 2-(4-methyl-piperazin-1-yl)-ethyl ester]"
5,0.00654 µM,"COc1cc(C(=O)On2nnc3cccnc32)ccc1NC(=O)[C@@H]1N[C@@H](CC(C)(C)C)[C@](C#N)(c2ccc(Cl)cc2F)[C@H]1c1cccc(Cl)c1F [Example 20, 4-{[(2R,3S,4R,5S)-4-(4-Chloro-2-fluoro-phenyl)-3-(3-chloro-2-fluoro-phenyl)-4-cyano-5-(2,2-dimethyl-propyl)-pyrrolidine-2-carbonyl]-amino}-3-methoxy-benzoic acid [1,2,3]triazolo[4,5-b]pyridin-3-yl ester]"
6,0.0137 µM,"COc1cc(C(=O)OC(C)CN2CCOCC2)ccc1NC(=O)[C@@H]1N[C@@H](CC(C)(C)C)[C@](C#N)(c2ccc(Cl)cc2F)[C@H]1c1cccc(Cl)c1F (stereo partly drawn) [Example 21, 4-{[(2R,3S,4R,5S)-4-(4-Chloro-2-fluoro-phenyl)-3-(3-chloro-2-fluoro-phenyl)-4-cyano-5-(2,2-dimethyl-propyl)-pyrrolidine-2-carbonyl]-amino}-3-methoxy-benzoic acid 1-methyl-2-morpholin-4-yl-ethyl ester]"
7,0.015 µM,"COc1cc(C(=O)OCCN2CCOCC2)ccc1NC(=O)[C@@H]1N[C@@H](CC(C)(C)C)[C@](C#N)(c2ccc(Cl)cc2F)[C@H]1c1cccc(Cl)c1F [Example 22, 4-{[(2R,3S,4R,5S)-4-(4-Chloro-2-fluoro-phenyl)-3-(3-chloro-2-fluoro-phenyl)-4-cyano-5-(2,2-dimethyl-propyl)-pyrrolidine-2-carbonyl]-amino}-3-methoxy-benzoic acid 2-morpholin-4-yl-ethyl ester]"
8,0.00934 µM,"CCN(CC)CCNC(=O)c1ccc(NC(=O)[C@@H]2N[C@@H](CC(C)(C)C)[C@](C#N)(c3ccc(Cl)cc3F)[C@H]2c2cccc(Cl)c2F)c(OC)c1 [Example 23, (2R,3S,4R,5S)-4-(4-Chloro-2-fluoro-phenyl)-3-(3-chloro-2-fluoro-phenyl)-4-cyano-5-(2,2-dimethyl-propyl)-pyrrolidine-2-carboxylic acid [4-(2-diethylamino-ethylcarbamoyl)-2-methoxy-phenyl]-amide, hydrochloride]"

# Same assay, conditions: read-out: IC50 (uM, 0.02% BSA); HTRF, 0.02% BSA, 37° C. 1 h
row,Compound,IC50
1,"4-{[(2R,3S,4R,5S)-4-(4-Chloro-2-fluoro-phenyl)-3-(3-chloro-2-fluoro-phenyl)-4-cyano-5-(2,2-dimethyl-propyl)-pyrrolidine-2-carbonyl]-amino}-3-methoxy-benzoic acid, dodecaethylene glycol ester [Example 43]",0.0062 µM
2,"4-{[(2R,3S,4R,5S)-4-(4-Chloro-2-fluoro-phenyl)-3-(3-chloro-2-fluoro-phenyl)-4-cyano-5-(2,2-dimethyl-propyl)-pyrrolidine-2-carbonyl]-amino}-3-methoxy-benzoic acid, polyethylene glycol-200 ester, trifluoroacetate salt [Example 45]",0.0105 µM
3,"4-{[(2R,3S,4R,5S)-4-(4-Chloro-2-fluoro-phenyl)-3-(3-chloro-2-fluoro-phenyl)-4-cyano-5-(2,2-dimethyl-propyl)-pyrrolidine-2-carbonyl]-amino}-3-methoxy-benzoic acid, polyethylene glycol-600 ester, trifluoroacetate salt [Example 44]",0.0113 µM
